In one assay the test system is Aspergillus fumigatus. In words: Minimum inhibitory concentration against Aspergillus fumigatus. The assay is classed as functional.
In another assay the test system is Cryptococcus neoformans. In words: Minimum inhibitory concentration against Cryptococcus neoformans.
The subject of assay [1] is Mus musculus. In words: Effective dose against disseminated Candidiasis mouse model after intraperitoneal administration; Value represented as 6.4/14.1. The assay is classed as functional.
For another assay, the system named is Candida albicans. In words: Minimum inhibitory concentration against Candida albicans. It counts as functional.
Assay [2] concerns Mus musculus. The assay can be described thus: Effective dose against disseminated Candidiasis mouse model after intraperitoneal administration. The assay is classed as functional.
Assay [3] deals with Mus musculus. In words: The compound was tested for antifungal activity in tail vein irritation model 7 days after a dose of 20 mg/kg administered intravenously at 0,24,48,72 h; Positive. The assay is classed as functional, organism-based. Details: dose 20 mg/kg.
In assay [4] the test system is Mus musculus. In words: The compound was tested for antifungal activity in tail vein irritation model 7 days after a dose of 20 mg/kg administered intravenously at 0,24,48,72 h; Negative. The assay is classed as functional, organism-based. More on the design: dose 20 mg/kg.
The test system of assay [5] is Mus musculus. In words: Effective dose against disseminated Candidiasis mouse model after intraperitoneal administration; Value ranges from 2.5-7.2. It counts as functional.
The subject of assay [6] is Mus musculus. In words: Effective dose against disseminated Candidiasis mouse model after intraperitoneal administration; Value ranges from 7.8-12.4. It counts as functional.

Experimental findings from ChEMBL document CHEMBL1134718, “N-acyloxymethyl carbamate linked prodrugs of pseudomycins are novel antifungal agents” (2001) are described below.

In brackets after ≈: the same amount, converted by molar mass. Positions of bridges follow the written chain, without caps; N, C: chain ends. Non-standard residues stand in square brackets, D forms with d. Residues, ends and D or L forms follow the SMILES beside them. *: point of attachment. Tetradecanoyl(3R-OH) = CCCCCCCCCCC[C@@H](O)CC(=O)*; Asp(3S-OH) = N[C@H](C(=O)O)[C@H](O)C(=O)O; Thr(4-Cl) = N[C@H](C(=O)O)[C@H](O)CCl; aThr = C[C@H](O)[C@H](N)C(=O)O; dDab = NCC[C@@H](N)C(=O)O; Dab = NCC[C@H](N)C(=O)O; Dhb = C/C=C(\N)C(=O)O Where only a bound is given, the exact number is not on record here.

As usually defined, the MIC is the smallest concentration in the dilution series that meets the test's criterion for growth inhibition. Low readings indicate greater potency, high ones weaker potency. On to `C/C=C1/NC(=O)[C@H]([C@H](C)O)NC(=O)[C@H](CCNC(=O)OCOC(=O)C(C)(C)C)NC(=O)[C@H](CCCCNC(=O)OCOC(=O)C(C)(C)C)NC(=O)[C@H](CC(=O)O)NC(=O)[C@@H](CCNC(=O)OCOC(=O)C(C)(C)C)NC(=O)[C@@H](NC(=O)C[C@H](O)CCCCCCCCCCC)COC(=O)[C@H]([C@H](O)CCl)NC(=O)[C@H]([C@H](O)C(=O)O)NC1=O`, for which the MIC in the assay with Aspergillus fumigatus, against Cryptococcus neoformans and in the assay with Candida albicans was over 20 µg/mL throughout. Besides, in the assay with Mus musculus [1], the ED50 is recorded as 6.4 mg 4kg-1.
For the compound `C/C=C1/NC(=O)[C@H]([C@H](C)O)NC(=O)[C@H](CCNC(=O)OCOC(C)=O)NC(=O)[C@H](CCCCNC(=O)OCOC(C)=O)NC(=O)[C@H](CC(=O)O)NC(=O)[C@@H](CCNC(=O)OCOC(C)=O)NC(=O)[C@@H](NC(=O)C[C@H](O)CCCCCCCCCCC)COC(=O)[C@H]([C@H](O)CCl)NC(=O)[C@H]([C@H](O)C(=O)O)NC1=O`, the ED50 with Mus musculus [2] stood at 13 mg 4kg-1.
In the case of `C/C=C1/NC(=O)[C@H]([C@H](C)O)NC(=O)[C@@H](CCN)NC(=O)[C@H](CCCCN)NC(=O)[C@H](CC(=O)O)NC(=O)[C@@H](CCN)NC(=O)[C@@H](NC(=O)C[C@H](O)CCCCCCCCCCCCC)COC(=O)[C@H]([C@H](O)CCl)NC(=O)[C@H]([C@H](O)C(=O)O)NC1=O`, the Toxicity result with Mus musculus [3] was “Positive”.
With `C/C=C1/NC(=O)[C@H]([C@H](C)O)NC(=O)[C@@H](CCNC(=O)OCOC(=O)C(C)(C)C)NC(=O)[C@H](CCCCNC(=O)OCOC(=O)C(C)(C)C)NC(=O)[C@H](CC(=O)O)NC(=O)[C@@H](CCNC(=O)OCOC(=O)C(C)(C)C)NC(=O)[C@@H](NC(=O)C[C@H](O)CCCCCCCCCCCCC)COC(=O)[C@H]([C@H](O)CCl)NC(=O)[C@H]([C@H](O)C(=O)O)NC1=O`, in the assay with Mus musculus [4], the Toxicity result was “Negative”.
For the compound `C/C=C1/NC(=O)[C@H]([C@H](C)O)NC(=O)[C@@H](CCNC(=O)OCOC(C)=O)NC(=O)[C@H](CCCCNC(=O)OCOC(C)=O)NC(=O)[C@H](CC(=O)O)NC(=O)[C@@H](CCNC(=O)OCOC(C)=O)NC(=O)[C@@H](NC(=O)C[C@H](O)CCCCCCCCCCC)COC(=O)[C@H]([C@H](O)CCl)NC(=O)[C@H]([C@H](O)C(=O)O)NC1=O`, in the assay on Mus musculus [3], the Toxicity result was “Positive”.
For the compound `C/C=C1/NC(=O)[C@H]([C@H](C)O)NC(=O)[C@H](CCNC(=O)OCOC(=O)C(C)(C)C)NC(=O)[C@H](CCCCNC(=O)OCOC(=O)C(C)(C)C)NC(=O)[C@H](CC(=O)O)NC(=O)[C@@H](CCNC(=O)OCOC(=O)C(C)(C)C)NC(=O)[C@@H](NC(=O)C[C@H](O)CCCCCCCCCCCCC)COC(=O)[C@H]([C@H](O)CCl)NC(=O)[C@H]([C@H](O)C(=O)O)NC1=O`, the MIC in the assay on Aspergillus fumigatus, in the assay with Cryptococcus neoformans and in the assay with Candida albicans was over 20 µg/mL in each case. For the same compound, in the assay on Mus musculus [2], the ED50 amounted to 9 mg 4kg-1.
As for `C/C=C1\NC(=O)[C@H]([C@H](C)O)NC(=O)[C@H](CCN)NC(=O)[C@H](CCCCN)NC(=O)[C@H](CC(=O)O)NC(=O)[C@@H](CCN)NC(=O)[C@@H](NC(=O)C[C@H](O)CCCCCCCCCCC)COC(=O)[C@H]([C@H](O)CCl)NC(=O)[C@H]([C@H](O)C(=O)O)NC1=O` [PSEUDOMYCIN B] ({Tetradecanoyl(3R-OH)}-S[dDab]DK[Dab][aThr][Dhb][Asp(3S-OH)][Thr(4-Cl)]; ester 1-C), the MIC against Aspergillus fumigatus is 20 µg/mL (≈ 16.6 µM); in the assay on Cryptococcus neoformans it was 0.039 µg/mL (≈ 0.0323 µM); with Candida albicans, 0.625 µg/mL (≈ 0.517 µM). Further, the Toxicity entry in the assay on Mus musculus [3] was “Positive”. The ED50 in the assay with Mus musculus [5] turned out to be 2.5 mg 4kg-1.
Take `C/C=C1/NC(=O)[C@H]([C@H](C)O)NC(=O)[C@@H](CCNC(=O)OC(C)OC(C)=O)NC(=O)[C@H](CCCCNC(=O)OC(C)OC(C)=O)NC(=O)[C@H](CC(=O)O)NC(=O)[C@@H](CCNC(=O)OC(C)OC(C)=O)NC(=O)[C@@H](NC(=O)C[C@H](O)CCCCCCCCCCC)COC(=O)[C@H]([C@H](O)CCl)NC(=O)[C@H]([C@H](O)C(=O)O)NC1=O` (some centres undefined): the Toxicity entry with Mus musculus [4] was “Negative”. The same compound yielded an ED50 in the assay with Mus musculus [2] of over 20 mg 4kg-1.
As to `C/C=C1/NC(=O)[C@H]([C@H](C)O)NC(=O)[C@H](CCN)NC(=O)[C@H](CCCCN)NC(=O)[C@H](CC(=O)O)NC(=O)[C@@H](CCN)NC(=O)[C@@H](NC(=O)C[C@H](O)CCCCCCCCCCCCC)COC(=O)[C@H]([C@H](O)CCl)NC(=O)[C@H]([C@H](O)C(=O)O)NC1=O` [PSEUDOMYCIN C], the results for the MIC with Aspergillus fumigatus, in the assay on Cryptococcus neoformans and in the assay on Candida albicans were 10 µg/mL (≈ 8.09 µM), under 0.02 µg/mL and 0.312 µg/mL (≈ 0.252 µM), respectively. Moreover, the ED50 in the assay with Mus musculus [6] is listed as 7.8 mg 4kg-1.
Turning to `C/C=C1/NC(=O)[C@H]([C@H](C)O)NC(=O)[C@@H](CCNC(=O)OCOC(=O)C(C)(C)C)NC(=O)[C@H](CCCCNC(=O)OCOC(=O)C(C)(C)C)NC(=O)[C@H](CC(=O)O)NC(=O)[C@@H](CCNC(=O)OCOC(=O)C(C)(C)C)NC(=O)[C@@H](NC(=O)C[C@H](O)CCCCCCCCCCC)COC(=O)[C@H]([C@H](O)CCl)NC(=O)[C@H]([C@H](O)C(=O)O)NC1=O`, the Toxicity entry with Mus musculus [4] was “Negative”.
